Assay results: ChEMBL document CHEMBL1143484, “Discovery of 1-amino-4-phenylcyclohexane-1-carboxylic acid and its influence on agonist selectivity between human melanocortin-4 and -1 receptors in linear pentapeptides” (Bioorg Med Chem Lett, 2005)
Non-standard residues stand in square brackets, D forms with d. Residues, ends and D or L forms follow the SMILES beside them. *: point of attachment. Butyryl = CCCC(=O)*

Legend:
[1] = target: T1, Melanocyte-stimulating hormone receptor (Homo sapiens, UniProt Q01726); assay: Binding affinity towards human Melanocortin 1 receptor using radiolabeled NDP-MSH displacement
Target sequence in this assay (Q01726 whole entry): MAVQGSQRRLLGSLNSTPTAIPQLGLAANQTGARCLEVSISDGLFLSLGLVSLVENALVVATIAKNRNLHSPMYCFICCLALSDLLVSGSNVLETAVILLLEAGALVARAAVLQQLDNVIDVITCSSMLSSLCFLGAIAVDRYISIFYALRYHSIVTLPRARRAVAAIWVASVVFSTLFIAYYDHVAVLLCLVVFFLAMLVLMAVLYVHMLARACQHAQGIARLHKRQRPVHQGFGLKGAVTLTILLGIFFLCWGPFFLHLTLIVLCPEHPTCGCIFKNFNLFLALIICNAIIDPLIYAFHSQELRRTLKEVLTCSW

Melanocortin receptor 4 [2] = target: T2, Melanocortin receptor 4 (Homo sapiens, UniProt P32245); assay: Effective concentration for cAMP accumulation mediated by human Melanocortin 4 receptor in HEK293 cells; type: functional, cell-based
Melanocortin receptor 4 [3] = target: T2, Melanocortin receptor 4; assay: Binding affinity towards human Melanocortin 4 receptor using radiolabeled NDP-MSH displacement
[4] = target: T1, Melanocyte-stimulating hormone receptor; assay: Concentration (50 uM) required for cAMP accumulation mediated by human Melanocortin 1 receptor in HEK293 cells; type: functional, cell-based
Target sequence in this assay (Q01726 whole entry, looked up): as the sequence (Q01726 whole entry) above

[5] = target: T1, Melanocyte-stimulating hormone receptor; assay: Effective concentration required for cAMP accumulation mediated by human Melanocortin 1 receptor in HEK293 cells; type: functional, cell-based
Target sequence in this assay (Q01726 whole entry): as above

[6] = target: Melanocortin receptor 3 (Homo sapiens) (UniProt P41968); assay: Concentration (50 uM) required for cAMP accumulation mediated by human Melanocortin 3 receptor in HEK293 cells; type: functional, cell-based
[7] = target: Melanocortin receptor 5 (Homo sapiens) (UniProt P33032); assay: Concentration (50 uM) required for cAMP accumulation mediated by human Melanocortin 5 receptor in HEK293 cells; type: functional, cell-based
Melanocortin receptor 4 [8] = target: T2, Melanocortin receptor 4; assay: Concentration (50 uM) required for cAMP accumulation mediated by human Melanocortin 4 receptor in HEK293 cells; type: functional, cell-based

Chain of Melanocortin receptor 5 (Homo sapiens) (P33032 whole entry): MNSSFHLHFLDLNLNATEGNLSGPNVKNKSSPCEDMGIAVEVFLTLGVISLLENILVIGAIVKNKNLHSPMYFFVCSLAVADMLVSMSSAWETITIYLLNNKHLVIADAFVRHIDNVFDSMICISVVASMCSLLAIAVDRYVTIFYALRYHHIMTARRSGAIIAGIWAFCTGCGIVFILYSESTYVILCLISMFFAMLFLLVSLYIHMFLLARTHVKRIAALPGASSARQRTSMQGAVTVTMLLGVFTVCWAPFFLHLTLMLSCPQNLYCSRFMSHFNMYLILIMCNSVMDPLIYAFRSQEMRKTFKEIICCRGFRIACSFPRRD
Chain of Melanocortin receptor 3 (Homo sapiens) (P41968 whole entry): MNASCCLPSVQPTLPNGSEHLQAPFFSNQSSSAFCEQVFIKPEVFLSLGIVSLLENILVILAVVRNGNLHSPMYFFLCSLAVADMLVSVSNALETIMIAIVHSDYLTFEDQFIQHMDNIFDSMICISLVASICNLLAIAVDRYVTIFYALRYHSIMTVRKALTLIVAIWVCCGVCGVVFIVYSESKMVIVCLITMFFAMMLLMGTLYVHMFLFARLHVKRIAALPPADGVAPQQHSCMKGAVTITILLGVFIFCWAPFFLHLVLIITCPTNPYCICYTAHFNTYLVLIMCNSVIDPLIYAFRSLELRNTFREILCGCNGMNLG
T2 sequence (P32245 whole entry): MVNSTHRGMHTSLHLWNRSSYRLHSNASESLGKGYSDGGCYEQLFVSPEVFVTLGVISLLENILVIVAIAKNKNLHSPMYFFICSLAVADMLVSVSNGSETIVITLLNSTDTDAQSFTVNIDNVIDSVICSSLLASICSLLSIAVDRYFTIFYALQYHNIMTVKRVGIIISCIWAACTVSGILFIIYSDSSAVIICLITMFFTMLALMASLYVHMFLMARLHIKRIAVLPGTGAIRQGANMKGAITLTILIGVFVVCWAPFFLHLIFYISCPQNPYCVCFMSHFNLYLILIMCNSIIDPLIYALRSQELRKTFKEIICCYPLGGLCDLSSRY

EC50 (Melanocortin receptor 4 [2]) [nM]	cAMP accumulation at 50 uM [4] [%]	EC50 [5] [nM]	Compound	further results
550	60		NC(=O)CNC(=O)[C@H](Cc1c[nH]c2ccccc12)NC(=O)[C@H](CCCN=C(N)N)NC(=O)[C@@H](Cc1ccccc1)NC(=O)[C@H]1CC[C@H](c2ccccc2)CC1	
3	55		CCCCC(=O)N[C@]1(C(=O)NC(Cc2ccccc2)C(=O)NC(CCCN=C(N)N)C(=O)N[C@@H](Cc2c[nH]c3ccccc23)C(=O)NCC(N)=O)CC[C@H](c2ccc(C)cc2)CC1 (single isomer, unassigned)	
2			CCCCC(=O)N[C@]1(C(=O)N[C@H](Cc2ccccc2)C(=O)N[C@@H](CCCNC(=N)N)C(=O)N[C@@H](Cc2c[nH]c3ccccc23)C(=O)NCC(N)=O)CC[C@H](c2ccccc2)CC1	IC50 [1]: 7100 nM; IC50 (Melanocortin receptor 4 [3]): 13 nM
	25		CCCCC(=O)N[C@]1(C(=O)N[C@H](Cc2ccccc2)C(=O)N[C@@H](CCCN=C(N)N)C(=O)N[C@@H](Cc2c[nH]c3ccccc23)C(=O)NCC(N)=O)CC[C@H](c2ccccc2)CC1	Accumulation [6]: 57%; Accumulation [7]: 36%
	45		CCCCC(=O)N[C@]1(C(=O)N[C@H](Cc2ccccc2)C(=O)N[C@@H](CCCN=C(N)N)C(=O)N[C@@H](Cc2c[nH]c3ccccc23)C(=O)NCC(N)=O)CC[C@H](c2ccc(Cl)cc2)CC1	
88		1300	CCCCC(=O)N[C@]1(C(=O)NC(Cc2ccccc2)C(=O)NC(CCCN=C(N)N)C(=O)N[C@@H](Cc2c[nH]c3ccccc23)C(=O)NCC(N)=O)CC[C@@H](c2ccccc2)CC1 (single isomer, unassigned)	

Further lines, the molecule ahead of its results:

Compound	EC50 (Melanocortin receptor 4 [2]) [nM]	cAMP accumulation at 50 uM [4] [%]	EC50 [5] [nM]	further results
CCCCC(=O)N[C@]1(C(=O)N[C@H](Cc2ccccc2)C(=O)N[C@@H](CCCNC(=N)N)C(=O)N[C@@H](Cc2c[nH]c3ccccc23)C(=O)NCC(N)=O)CC[C@H](c2ccc(OCC)cc2)CC1	13			IC50 [1]: 4700 nM; IC50 (Melanocortin receptor 4 [3]): 43 nM
CCCCC(=O)N[C@]1(C(=O)N[C@H](Cc2ccccc2)C(=O)N[C@@H](CCCN=C(N)N)C(=O)N[C@@H](Cc2c[nH]c3ccccc23)C(=O)NCC(N)=O)CC[C@H](c2ccc(OC(C)C)cc2)CC1		60		
CCCCC(=O)N[C@@]1(C(=O)N[C@H](Cc2ccccc2)C(=O)N[C@@H](CCCN=C(N)N)C(=O)N[C@@H](Cc2c[nH]c3ccccc23)C(=O)NCC(N)=O)CCc2ccccc2C1	45		830	
CCCCC(=O)N[C@]1(C(=O)N[C@H](Cc2ccccc2)C(=O)N[C@@H](CCCNC(=N)N)C(=O)N[C@@H](Cc2c[nH]c3ccccc23)C(=O)NCC(N)=O)CC[C@H](c2ccc(Cl)cc2)CC1	4			
CCCC(=O)N[C@@H](Cc1c[nH]cn1)C(=O)N[C@H](Cc1ccccc1)C(=O)N[C@@H](CCCN=C(N)N)C(=O)N[C@@H](Cc1c[nH]c2ccccc12)C(=O)NCC(N)=O (Butyryl-H[dF]RWG-NH2)				Accumulation [6]: 0%; Accumulation [7]: 0%
CCCCC(=O)N[C@]1(C(=O)NC(Cc2ccccc2)C(=O)NC(CCCN=C(N)N)C(=O)N[C@@H](Cc2c[nH]c3ccccc23)C(=O)NCC(N)=O)CC[C@H](c2ccc(OC)cc2)CC1 (single isomer, unassigned)	9	0		
CCCCC(=O)N[C@]1(C(=O)N[C@H](Cc2ccccc2)C(=O)N[C@@H](CCCNC(=N)N)C(=O)N[C@@H](Cc2c[nH]c3ccccc23)C(=O)NCC(N)=O)CC[C@H](c2ccc(OC(C)C)cc2)CC1	6			
CCCCC(=O)N[C@]1(C(=O)N[C@H](Cc2ccccc2)C(=O)N[C@@H](CCCNC(=N)N)C(=O)N[C@@H](Cc2c[nH]c3ccccc23)C(=O)NCC(N)=O)CC[C@H](c2ccc(O)cc2)CC1	5		1300	
CCCCC(=O)N[C@]1(C(=O)N[C@H](Cc2ccccc2)C(=O)N[C@@H](CCCN=C(N)N)C(=O)N[C@@H](Cc2c[nH]c3ccccc23)C(=O)NCC(N)=O)CC[C@H](c2cc(CCC)cc(CCC)c2)CC1			210	Accumulation (Melanocortin receptor 4 [8]): 60%
CCCCC(=O)N[C@]1(C(=O)N[C@H](Cc2ccccc2)C(=O)N[C@@H](CCCNC(=N)N)C(=O)N[C@@H](Cc2c[nH]c3ccccc23)C(N)=O)CC[C@H](c2ccccc2)CC1	130		1300	
CCCCC(=O)N[C@]1(C(=O)N[C@H](Cc2ccccc2)C(=O)N[C@@H](CCCN=C(N)N)C(=O)N[C@@H](Cc2c[nH]c3ccccc23)C(=O)NCC(N)=O)CC[C@H](c2ccc(OCC)cc2)CC1		0		Accumulation [6]: 28%; Accumulation [7]: 46%
CCCCC(=O)N[C@]1(C(=O)N[C@H](Cc2ccccc2)C(=O)N[C@@H](CCCNC(=N)N)C(=O)N[C@@H](Cc2c[nH]c3ccccc23)C(=O)NCC(N)=O)CC[C@H](c2cccc(OC)c2)CC1	2		690	
